The target of data set [1] is T1, Aurora kinase A (Homo sapiens, UniProt O14965).
T1 sequence (O14965 whole entry): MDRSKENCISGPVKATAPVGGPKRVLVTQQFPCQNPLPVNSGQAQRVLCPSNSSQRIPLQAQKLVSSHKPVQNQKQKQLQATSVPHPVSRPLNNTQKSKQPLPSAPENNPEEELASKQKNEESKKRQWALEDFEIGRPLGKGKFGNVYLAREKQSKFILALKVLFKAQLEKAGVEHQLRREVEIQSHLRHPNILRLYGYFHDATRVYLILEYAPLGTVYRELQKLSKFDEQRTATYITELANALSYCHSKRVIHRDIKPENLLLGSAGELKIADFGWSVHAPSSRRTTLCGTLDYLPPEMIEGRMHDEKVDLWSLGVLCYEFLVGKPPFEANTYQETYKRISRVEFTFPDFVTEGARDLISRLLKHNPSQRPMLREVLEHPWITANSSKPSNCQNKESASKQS
The data set is described as follows: Inhibition of Aurora A (unknown origin) using STK S2 as substrate after 40 mins by HTRF assay.

Data set [2] addresses Aurora kinase B (Homo sapiens, UniProt Q96GD4). The data set is described as follows: Inhibition of Aurora B (unknown origin) using STK S2 as substrate after 30 mins by HTRF assay. (TR-FRET usually uses a lanthanide donor and a delayed reading to cut background.)
Data set [3] concerns the target Vascular endothelial growth factor receptor 2 (Homo sapiens, UniProt P35968). The data set is described as follows: biochemical. It is filed as cell-based, Sf21.
Description: Inhibition of recombinant human N-terminal His6-tagged KDR (790 to end residues) expressed in baculovirus infected Sf21 insect cells after 60 mins by ELISA
Data set [4] concerns BGC-823. The data set is described as follows: Antiproliferative activity against human BGC823 cells after 72 hrs by sulforhodamine B assay. It is filed as functional, cell-based. Conditions: BGC-823, 72 h. For orientation: The SRB assay estimates cell density from bound dye.
Data set [5] relates to MKN-45. The data set is described as follows: Antiproliferative activity against human MKN45 cells after 72 hrs by sulforhodamine B assay. It is filed as functional, cell-based. Conditions: MKN-45, 72 h.
Data set [6] relates to MKN-74. The data set is described as follows: Antiproliferative activity against human MKN74 cells after 72 hrs by sulforhodamine B assay. It is filed as functional, cell-based. The settings on record: MKN-74, 72 h.
Data set [7] relates to SNU-5. The data set is described as follows: Antiproliferative activity against human SNU5 cells after 72 hrs by CCK8 assay. It is filed as functional, cell-based. The settings on record: SNU-5, 72 h. (Tetrazolium dyes change colour on reduction, which living cells bring about.)
Data set [8] relates to SGC-7901. The data set is described as follows: Antiproliferative activity against human SGC7901 cells after 72 hrs by sulforhodamine B assay. It is filed as functional, cell-based. Conditions: SGC-7901, 72 h.
The subject of data set [9] is Mus musculus. Nature of the data set: Toxicity in nude mouse xenografted with human SNU5 cells assessed as mortality at 30 mg/kg, po qd for 21 days. It is filed as organism-based. The settings on record: in vivo, 504 h.
Data set [10] has as its system SNU-5. Nature of the data set: Antitumor activity against human SNU5 cells xenografted in nude mouse assessed as delay in tumor tumor growth at 30 mg/kg, po qd for 21 days relative to control. It is filed as functional.
For data set [11], the system named is Mus musculus. The data set is described as follows: Toxicity in nude mouse xenografted with human SNU5 cells assessed as body weight at 30 mg/kg, po qd for 21 days (reference value: 19.6 g). It is filed as organism-based. The settings on record: in vivo, 504 h.
Data set [12] concerns the target Proto-oncogene tyrosine-protein kinase receptor Ret (Homo sapiens) (UniProt P07949). The data set is described as follows: Inhibition of recombinant human RET at 1000 nM after 60 mins by ELISA relative to control.
Data set [13] addresses Platelet-derived growth factor receptor beta (Homo sapiens) (UniProt P09619). Nature of the data set: Inhibition of recombinant human PDGFRbeta at 1000 nM after 60 mins by ELISA relative to control.
The target in data set [14] is Receptor tyrosine-protein kinase erbB-2 (Homo sapiens) (UniProt P04626). Nature of the data set: Inhibition of recombinant human Erbb2 at 1000 nM after 60 mins by ELISA relative to control.

The structures appear in SMILES notation.

Chain of Aurora kinase B (Q96GD4 whole entry): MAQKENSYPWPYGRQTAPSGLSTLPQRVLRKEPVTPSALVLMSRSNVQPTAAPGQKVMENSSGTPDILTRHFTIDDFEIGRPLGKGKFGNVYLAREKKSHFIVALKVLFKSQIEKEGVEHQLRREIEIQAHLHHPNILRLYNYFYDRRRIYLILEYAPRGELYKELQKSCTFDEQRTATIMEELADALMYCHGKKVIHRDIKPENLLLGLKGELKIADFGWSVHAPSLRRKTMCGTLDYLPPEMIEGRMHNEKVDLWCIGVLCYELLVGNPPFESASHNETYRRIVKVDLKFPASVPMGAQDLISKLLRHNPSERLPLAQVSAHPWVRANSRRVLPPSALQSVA
Chain of Vascular endothelial growth factor receptor 2 (P35968 whole entry): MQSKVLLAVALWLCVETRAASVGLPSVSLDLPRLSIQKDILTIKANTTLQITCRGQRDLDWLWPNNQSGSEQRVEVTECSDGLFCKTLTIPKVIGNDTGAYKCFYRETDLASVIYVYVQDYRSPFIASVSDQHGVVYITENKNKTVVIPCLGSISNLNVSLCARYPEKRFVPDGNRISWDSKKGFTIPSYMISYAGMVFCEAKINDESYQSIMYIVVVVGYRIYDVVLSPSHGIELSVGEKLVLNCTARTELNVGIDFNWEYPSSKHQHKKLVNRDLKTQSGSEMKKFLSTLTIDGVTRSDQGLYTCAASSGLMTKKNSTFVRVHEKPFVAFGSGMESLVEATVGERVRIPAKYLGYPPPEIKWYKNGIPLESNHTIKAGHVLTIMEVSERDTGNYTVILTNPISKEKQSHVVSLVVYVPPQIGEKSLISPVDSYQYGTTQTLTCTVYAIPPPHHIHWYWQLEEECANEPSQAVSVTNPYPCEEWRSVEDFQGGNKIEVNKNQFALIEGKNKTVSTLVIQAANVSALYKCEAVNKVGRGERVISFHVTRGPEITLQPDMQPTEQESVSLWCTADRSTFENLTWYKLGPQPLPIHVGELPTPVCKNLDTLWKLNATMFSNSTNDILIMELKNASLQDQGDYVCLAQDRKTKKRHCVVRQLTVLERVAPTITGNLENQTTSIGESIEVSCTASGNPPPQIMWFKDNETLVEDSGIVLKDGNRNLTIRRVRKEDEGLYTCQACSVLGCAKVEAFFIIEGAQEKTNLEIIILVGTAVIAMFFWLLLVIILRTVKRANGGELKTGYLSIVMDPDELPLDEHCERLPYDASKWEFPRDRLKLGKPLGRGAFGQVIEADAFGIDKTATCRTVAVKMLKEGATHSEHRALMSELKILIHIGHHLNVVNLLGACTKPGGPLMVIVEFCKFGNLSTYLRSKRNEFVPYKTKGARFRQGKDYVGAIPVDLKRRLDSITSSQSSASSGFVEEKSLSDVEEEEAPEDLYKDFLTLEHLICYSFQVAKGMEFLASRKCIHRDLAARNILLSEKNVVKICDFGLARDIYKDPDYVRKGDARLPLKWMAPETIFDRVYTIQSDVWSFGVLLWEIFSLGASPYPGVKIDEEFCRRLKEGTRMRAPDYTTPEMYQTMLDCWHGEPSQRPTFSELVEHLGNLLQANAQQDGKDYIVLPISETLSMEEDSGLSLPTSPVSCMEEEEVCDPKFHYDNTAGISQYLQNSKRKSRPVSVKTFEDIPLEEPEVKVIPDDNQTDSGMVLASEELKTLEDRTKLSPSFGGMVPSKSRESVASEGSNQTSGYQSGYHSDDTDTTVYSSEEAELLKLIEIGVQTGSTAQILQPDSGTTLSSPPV
Chain of Platelet-derived growth factor receptor beta (Homo sapiens) (P09619 whole entry): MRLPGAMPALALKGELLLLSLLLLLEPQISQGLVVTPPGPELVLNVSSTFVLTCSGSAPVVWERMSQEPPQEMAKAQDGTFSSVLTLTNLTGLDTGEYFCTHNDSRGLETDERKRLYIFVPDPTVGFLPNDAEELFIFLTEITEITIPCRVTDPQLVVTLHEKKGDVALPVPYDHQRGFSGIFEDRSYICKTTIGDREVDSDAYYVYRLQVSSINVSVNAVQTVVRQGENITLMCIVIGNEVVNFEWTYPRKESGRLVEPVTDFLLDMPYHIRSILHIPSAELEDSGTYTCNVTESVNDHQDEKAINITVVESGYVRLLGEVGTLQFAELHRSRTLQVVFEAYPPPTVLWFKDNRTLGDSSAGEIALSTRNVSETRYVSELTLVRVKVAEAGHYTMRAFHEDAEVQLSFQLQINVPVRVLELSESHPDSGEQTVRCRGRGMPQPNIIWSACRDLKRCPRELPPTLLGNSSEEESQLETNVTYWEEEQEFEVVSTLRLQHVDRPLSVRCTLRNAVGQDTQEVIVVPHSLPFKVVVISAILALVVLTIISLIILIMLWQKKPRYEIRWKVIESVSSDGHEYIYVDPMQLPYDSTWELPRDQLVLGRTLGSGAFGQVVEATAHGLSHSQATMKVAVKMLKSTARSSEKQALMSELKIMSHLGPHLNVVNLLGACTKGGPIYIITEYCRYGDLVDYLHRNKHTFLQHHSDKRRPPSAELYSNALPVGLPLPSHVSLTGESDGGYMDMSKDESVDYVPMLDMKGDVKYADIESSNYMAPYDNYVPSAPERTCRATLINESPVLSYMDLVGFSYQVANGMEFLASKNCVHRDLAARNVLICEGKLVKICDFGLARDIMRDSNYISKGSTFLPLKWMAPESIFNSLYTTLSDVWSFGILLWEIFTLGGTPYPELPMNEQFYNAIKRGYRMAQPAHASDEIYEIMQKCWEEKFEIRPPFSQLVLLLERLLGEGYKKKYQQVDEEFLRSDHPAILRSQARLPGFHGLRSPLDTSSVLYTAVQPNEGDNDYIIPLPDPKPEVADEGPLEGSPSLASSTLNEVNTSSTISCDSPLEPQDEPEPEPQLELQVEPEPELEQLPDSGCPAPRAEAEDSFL
Chain of Proto-oncogene tyrosine-protein kinase receptor Ret (Homo sapiens) (P07949 whole entry): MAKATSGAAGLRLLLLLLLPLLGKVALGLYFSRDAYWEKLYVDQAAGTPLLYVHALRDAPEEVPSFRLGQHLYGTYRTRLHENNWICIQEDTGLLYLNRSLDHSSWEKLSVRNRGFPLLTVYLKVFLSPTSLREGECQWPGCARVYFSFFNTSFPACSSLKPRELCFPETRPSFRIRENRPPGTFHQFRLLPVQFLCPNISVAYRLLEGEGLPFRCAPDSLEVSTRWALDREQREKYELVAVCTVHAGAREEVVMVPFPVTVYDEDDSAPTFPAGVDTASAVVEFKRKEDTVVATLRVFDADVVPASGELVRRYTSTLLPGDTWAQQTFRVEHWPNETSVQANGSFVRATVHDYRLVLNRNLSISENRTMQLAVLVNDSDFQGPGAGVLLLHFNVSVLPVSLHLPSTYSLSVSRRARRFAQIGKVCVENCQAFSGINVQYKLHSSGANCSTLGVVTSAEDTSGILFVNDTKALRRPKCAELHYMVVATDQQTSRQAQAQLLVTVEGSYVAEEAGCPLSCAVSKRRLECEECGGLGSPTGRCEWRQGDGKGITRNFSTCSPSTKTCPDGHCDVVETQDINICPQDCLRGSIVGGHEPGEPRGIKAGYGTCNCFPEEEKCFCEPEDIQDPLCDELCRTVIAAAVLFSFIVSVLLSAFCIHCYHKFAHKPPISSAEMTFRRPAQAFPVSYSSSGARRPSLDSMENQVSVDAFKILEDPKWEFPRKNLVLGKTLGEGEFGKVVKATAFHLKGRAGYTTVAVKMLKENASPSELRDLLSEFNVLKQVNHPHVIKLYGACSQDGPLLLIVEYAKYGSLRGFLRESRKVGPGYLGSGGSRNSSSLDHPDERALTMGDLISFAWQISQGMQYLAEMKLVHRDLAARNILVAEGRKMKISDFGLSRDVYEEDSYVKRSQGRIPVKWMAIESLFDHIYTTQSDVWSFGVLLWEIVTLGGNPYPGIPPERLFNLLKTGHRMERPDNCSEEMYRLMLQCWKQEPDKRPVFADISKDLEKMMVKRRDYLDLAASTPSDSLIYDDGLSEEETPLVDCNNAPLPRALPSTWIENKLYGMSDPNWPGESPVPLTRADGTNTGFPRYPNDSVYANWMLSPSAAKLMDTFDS

With `CSc1ncc2c(n1)Nc1n[nH]c(C)c1N=C2c1ccc(C)cc1`, the 50% inhibitory concentration (IC50) (as a rule, the midpoint of a concentration-inhibition curve) in data set [1] is 70.6 nM; in data set [2], 99.8 nM; in data set [3], 157 nM.

As to `COc1cccc2c1C(=O)c1c(O)c3c(c(O)c1C2=O)C[C@@](O)(C(=O)CO)C[C@@H]3O[C@H]1C[C@H](N)[C@H](O)[C@H](C)O1` [DOXORUBICIN], the IC50 in [4] came to 405 nM; in data set [5], 127 nM; in data set [6], 204 nM; in [7] it was 237 nM; in [8], 130 nM.

In the case of `CSc1ncc2c(n1)Nc1n[nH]c(C)c1N=C2c1cccc(Cl)c1`, the values for the IC50 in data set [1], in data set [2] and in data set [3] were 102 nM, 1000 nM and 141 nM, respectively.

In the case of `CSc1ncc2c(n1)Nc1n[nH]c(C)c1N=C2c1ccc(C(F)(F)F)cc1`, the values for the IC50 in data set [1], in data set [2] and in data set [3] were 423 nM, 854 nM and 209 nM, respectively.

Take `COc1cc2nccc(Oc3ccc(NC(=O)C4(C(=O)Nc5ccc(F)cc5)CC4)cc3)c2cc1OC` [CABOZANTINIB]: the Activity entry in data set [9] is reported as “Non-Toxic”; in data set [11], 19.9 g. The T/C – broadly, the ratio of treated to control – in data set [10] worked out at 8.41%.

As for `CNc1ncc2c(n1)Nc1n[nH]c(C)c1N=C2c1ccc(C)cc1`, the IC50 in data set [1] worked out at 397 nM; in data set [2], 352 nM; in [3], 199 nM.

Consider `CSc1ncc2c(n1)Nc1n[nH]c(C)c1N=C2c1ccccc1`, for which the IC50 in data set [1] was 193 nM; in data set [2] it was 894 nM; in [3], 697 nM.

`CSc1ncc2c(n1)Nc1n[nH]c(C)c1N=C2c1ccccc1C(F)(F)F`: the concentration for half-maximal inhibition (IC50) in data set [1] came out at 128 nM; in data set [2] it was 307 nM; in [3] it was 205 nM.

For `CCN(CC)CCNC(=O)c1c(C)[nH]c(/C=C2\C(=O)Nc3ccc(F)cc32)c1C`, the inhibition (commonly the change of the read-out against control, counted positive when it falls) in data set [12] was found to be 76.7%; in data set [13], 75.7%.

Take `CSc1ncc2c(n1)Nc1n[nH]c(C)c1N=C2c1cccc(F)c1`: the IC50 in data set [1] worked out at 167 nM; in data set [2], 611 nM; in [3] it was 330 nM.

On to `Cc1ccc(C2=Nc3c(n[nH]c3C)Nc3nc(N4CCN(C)CC4)ncc32)cc1`, for which the values for the IC50 in data set [1], in data set [2] and in data set [3] were 108 nM, 86 nM and 24.7 nM, respectively.

As for `COc1ccccc1C1=Nc2c(n[nH]c2C)Nc2nc(SC)ncc21`, the IC50 in [1] came to 191 nM; in [2], 2320 nM; in data set [3], 102 nM.

For `Cc1ccc(C2=Nc3c(n[nH]c3C)Nc3nc(N4CCCCC4)ncc32)cc1`, the IC50 in data set [1] came to 77.6 nM; in data set [2] it was 50.3 nM; in [3], 30 nM.

Regarding `Cc1ccc(C2=Nc3c(n[nH]c3C)Nc3nc(NC(C)C)ncc32)cc1`, the IC50 was 63.1 nM in data set [1], 54.1 nM in data set [2] and 30.3 nM in [3].

Turning to `CSc1ncc2c(n1)Nc1n[nH]c(C)c1N=C2c1ccc(Cl)cc1`, the IC50 in [1] was determined as 183 nM; in data set [2], 1620 nM; in data set [3], 318 nM.

As to `Cc1ccc(C2=Nc3c(n[nH]c3C)Nc3nc(NC(C)(C)C)ncc32)cc1`, the half-maximal inhibitory concentration (IC50) is 357 nM in [1], 1180 nM in data set [2] and 84.5 nM in [3].

For `COc1ccc(C2=Nc3c(n[nH]c3C)Nc3nc(SC)ncc32)cc1`, the IC50 stood at 93 nM in [1], 2680 nM in data set [2] and 430 nM in data set [3].

Consider `CCN(CC)c1ncc2c(n1)Nc1n[nH]c(C)c1N=C2c1ccc(C)cc1`, for which the half-maximal inhibitory concentration (IC50) in data set [1] turned out to be 268 nM; in data set [2], 322 nM; in [3] it was 8.3 nM.

For `CN(C)C/C=C/C(=O)Nc1cc2c(Nc3ccc(F)c(Cl)c3)ncnc2cc1O[C@H]1CCOC1`, in [14], the inhibition stood at 97.6%.

Take `CSc1ncc2c(n1)Nc1n[nH]c(C)c1N=C2c1ccccc1Cl`: the IC50 was 94 nM in data set [1], 278 nM in data set [2] and 83.7 nM in data set [3].

Turning to `CSc1ncc2c(n1)Nc1n[nH]c(C)c1N=C2c1ccccc1C`, the IC50 stood at 75 nM in data set [1], 610 nM in data set [2] and 110 nM in data set [3].
